Experiment [1] deals with Bifunctional peptidase and arginyl-hydroxylase JMJD5 (Homo sapiens, UniProt Q8N371). As to the kind of experiment: Inhibition of N-terminal his6-tagged-thioredoxin-tagged human recombinant JMJD5 expressed in Escherichia coli using RPS6 as substrate by SPE-MS analysis.
Experiment [2] can be described thus: Inhibition of N-terminal his6-tagged FIH (unknown origin) expressed in Escherichia coli using HIF-alpha CAD (788 to 822 residues) expressed in Escherichia coli by SPE-MS analysis. Set-up: species or system Homo sapiens.
Experiment [3] deals with T1, Lysine-specific demethylase 4E (Homo sapiens, UniProt B2RXH2).
T1 sequence (B2RXH2 whole entry): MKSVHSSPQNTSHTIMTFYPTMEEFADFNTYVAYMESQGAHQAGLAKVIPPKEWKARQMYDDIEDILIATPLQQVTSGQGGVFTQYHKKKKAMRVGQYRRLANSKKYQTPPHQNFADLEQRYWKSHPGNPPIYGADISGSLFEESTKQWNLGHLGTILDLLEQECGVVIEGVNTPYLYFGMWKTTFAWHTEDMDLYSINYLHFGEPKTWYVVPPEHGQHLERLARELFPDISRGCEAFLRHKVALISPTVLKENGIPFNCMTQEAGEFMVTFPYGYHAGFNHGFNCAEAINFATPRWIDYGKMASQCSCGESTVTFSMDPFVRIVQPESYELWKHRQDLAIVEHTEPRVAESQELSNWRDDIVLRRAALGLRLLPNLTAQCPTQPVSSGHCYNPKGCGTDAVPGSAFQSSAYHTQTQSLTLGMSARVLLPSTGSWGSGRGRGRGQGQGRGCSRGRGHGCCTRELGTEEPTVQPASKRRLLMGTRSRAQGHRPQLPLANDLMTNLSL
Nature of the experiment: Inhibition of KDM4E (unknown origin) by SPE-MS analysis.

Experiment [4] relates to A549. As to the kind of experiment: Induction of cell cycle arrest in human A549 cells assessed as accumulation at sub G1 phase incubated for 24 hrs by PI staining based flow cytometry. Format: functional.
Experiment [5] concerns A549. As to the kind of experiment: Induction of replication stress in human A549 cells increase in micronuclei at 1 uM by DAPI staining based fluorescent microscopic analysis. In kind it is functional, cell-based.
For experiment [6], the system named is A549. As to the kind of experiment: Induction of cell cycle arrest in human A549 cells assessed as accumulation at G1 phase incubated for 24 hrs by PI staining based flow cytometry. In kind it is functional.
In experiment [7] the test system is A549. As to the kind of experiment: Induction of replication stress in human A549 cells increase in 53BP1 bodies at 1 uM by DAPI staining based fluorescent microscopic analysis. Format: functional, cell-based.
Experiment [8] deals with T1, Lysine-specific demethylase 4E. As to the kind of experiment: Inhibition of KDM4E (unknown origin) by FDH-coupled spectrophotometric turnover assay.

The source made the active and inactive calls. The rule behind the calls is not given here.

Chain of Bifunctional peptidase and arginyl-hydroxylase JMJD5 (Q8N371 whole entry, the tested form may be a part): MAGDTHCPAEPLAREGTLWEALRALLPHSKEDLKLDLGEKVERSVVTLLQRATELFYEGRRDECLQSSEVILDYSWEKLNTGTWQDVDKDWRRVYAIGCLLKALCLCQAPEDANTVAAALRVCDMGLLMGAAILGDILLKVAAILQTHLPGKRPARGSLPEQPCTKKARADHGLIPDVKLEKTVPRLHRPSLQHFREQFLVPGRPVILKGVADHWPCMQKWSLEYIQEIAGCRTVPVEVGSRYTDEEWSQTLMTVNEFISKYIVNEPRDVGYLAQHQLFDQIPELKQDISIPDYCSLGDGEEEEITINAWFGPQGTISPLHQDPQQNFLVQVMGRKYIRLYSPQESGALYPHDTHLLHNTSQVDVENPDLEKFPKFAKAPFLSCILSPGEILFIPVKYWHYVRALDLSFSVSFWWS

Regarding `COc1ccccc1CNc1cnc(C(=O)O)cc1C(=O)O`, in experiment [1], the IC50 worked out at 0.7 µM.

With `O=C(O)c1cc(C(=O)O)c(NCc2ccccc2C2CC2)cn1`, the IC50 in experiment [2] was more than 50 µM.

As to `O=C(O)c1cc(C(=O)O)c(C(F)(F)F)cn1`, in experiment [3], the IC50 result is listed as “Not Active”.

With `COC(=O)c1cc(C(=O)OC)c(NCc2ccccc2OC)cn1`, the result in the experiment on A549 [4], in the experiment with A549 [5], in the experiment on A549 [6] and in the experiment on A549 [7] was Active.

For `O=C(O)c1ccnc(C(=O)O)c1Nc1ccccc1[N+](=O)[O-]`, the IC50 in experiment [8] was found to be 56 µM.

With `O=C(O)c1ccnc(C(=O)O)c1C(F)(F)F`, the 50% inhibitory concentration (IC50) result in experiment [3] is given as “Not Active”.

As for `COC(=O)c1cc(C(=O)OC)c(NCc2ccccc2C2CC2)cn1`, the outcome with A549 [4], in the experiment with A549 [5], with A549 [6] and in the experiment with A549 [7] was Active.

Source of the values: ChEMBL document CHEMBL5360635 (J Med Chem, 2023).
